Results on 7 compounds are retold here after patent US5264432A, “5-(1-aminoacyl)-5,10-dihydro-11H-dibenzo[b,e](1,4)diazepin-11-ones” (Arzneimittelwerk Dresden G.m.b.H, priority 1989, dated 1993).

Where a name gives a salt, the structure may show the parent alone. Read-outs that look alike come from different tables or passages of the source.

The test system of data set [1] is dogs, 24 hours after a two-step coronary ligature. The experiment in a line: two-step coronary ligature on the dog (Harris model). The data set is classed as in vivo. To be noted: for ectopic contractions in percent/min. / total number of heart contractions/min.: average value; for effective action in minutes (duration of action), Harris dog: i.v. at the effective dose, dogs, 24 hours after two-step coronary ligature.
Description: Dose is the effective dose in mg/kg, as well as the duration of action in minutes in dogs, 24 hours after a two-step coronary ligature.

A short description of data set [2]: in vivo. To be noted: rat, iv, i.v. tail vein, Wistar rats, parentheses = confidence interval p=0.05, read-out: LD50 i.v., acute toxicity of the rat.
Description: The data were analyzed by the Probit regression analysis with a confidence interval of p=0.05 (values in parentheses).
For data set [3], the system named is CaCl2 arrhythmia of the rat. The data set can be described thus: CaCl2 arrhythmia of the rat (antifibrillatory effect). To be noted: ratio LD50 iv./ED50 iv. The protocol:
The data is analyzed by the Probit regression analysis with a confidence interval of p=0.05 (values in parentheses).
Q is the ratio of LD50 iv. /ED50 iv. to determine therapeutic breadth range.

For data set [4], the system named is dogs, 24 hours after a two-step coronary ligature. The following applies: quinidine, cited from earlier work.

`CCN(CC)CC(=O)Nc1c(C)cccc1C` [Lidocaine, reference compound]: the “ectopic contractions in percent/min.” value turned out to be 34 percent/min in data set [1] (5 mins, 0.02 mmol/kg (5.4 mg/kg)) and 78 percent/min in data set [1] (30 mins, 0.02 mmol/kg (5.4 mg/kg)). Further, in data set [1] (dog, Harris), the “ectopic arrhythmia / ectopy rate (in words)” value is “decrease in the ectopic arrhythmia”. The “total number of heart contractions (in words)” value in data set [1] (dog, Harris) is “decrease in the total number of heart contractions”. Moreover, the “effective action in minutes (duration of action), Harris dog” value (“effective action in minutes” below) in data set [1] is 15 min.
One may read the LD50 as the dose expected to kill half of the subjects tested. Take `CN(C)CCCCCC(=O)N1c2ccccc2NC(=O)c2ccccc21` [Example 1, 5-(6-Dimethylamino-capronyl)-5,10-dihydro-11H-dibenzo(b,e)(1,4)-diazepine-11-one.HCl]: the LD50 in data set [2] is 85 mg/kg. Also, the “ectopic contractions in percent/min.” value in data set [1] (5 mins, 0.005 mmol/kg) stood at 30 percent/min; in data set [1] (30 mins, 0.005 mmol/kg), 47 percent/min; in data set [1] (60 mins, 0.005 mmol/kg) it was 54 percent/min; in data set [1] (120 mins, 0.005 mmol/kg), 68 percent/min; in data set [1] (180 mins, 0.005 mmol/kg) it was 80 percent/min. Besides, the “effective action in minutes” value in data set [1] turned out to be 60 min. Also, in data set [3], the “Q = LD50/ED50 (therapeutic breadth)” value came to 207.
With `O=C1Nc2cc(Cl)ccc2N(C(=O)CCCCCCN2CCOCC2)c2ccccc21` [Example 9, 8-Chloro-5-(7-N-morpholino-enanthoyl)-5,10-dihydro-11H-dibenzo(b,e)(1,4)-diazepine-11-one], the LD50 in data set [2] amounted to 41 mg/kg. The “ectopic contractions in percent/min.” value in data set [1] (5 mins, 0.005 mmol/kg) was 21 percent/min; in data set [1] (30 mins, 0.005 mmol/kg), 38 percent/min; in data set [1] (60 mins, 0.005 mmol/kg) it was 42 percent/min; in data set [1] (120 mins, 0.005 mmol/kg) it was 42 percent/min; in data set [1] (180 mins, 0.005 mmol/kg), 73 percent/min; in data set [1] (300 mins, 0.005 mmol/kg) it was 79 percent/min. Further, the “ectopic contractions in percent/min.” value in data set [1] (360 mins, 0.005 mmol/kg) is recorded as 89 percent/min. In addition, the “total number of heart contractions/min.” value was 156 min⁻¹ in data set [1] (120 mins., 0.005 mmol/kg) and 180 min⁻¹ in data set [1] (360 mins., 0.005 mmol/kg). Further, the “effective action in minutes” value in data set [1] came to 120 min. In addition, in data set [3], the “Q = LD50/ED50 (therapeutic breadth)” value was determined as 256.
Consider `CCN(CC)CCCCCC(=O)N1c2ccc(Cl)cc2NC(=O)c2ccccc21` [Example 6, 8-Chloro-5-(6-diethylamino-capronyl)-5,10-dihydro-11H-dibenzo(b,e)(1,4)-diazepine-11-one], for which the LD50 in data set [2] is 38 mg/kg. Moreover, in data set [1] (5 mins., 0.005 mmol/kg), the “total number of heart contractions/min.” value came to 170 min⁻¹. Moreover, the “ectopic contractions in percent/min.” value in data set [1] (5 mins, 0.005 mmol/kg) came to 20 percent/min; in data set [1] (30 mins, 0.005 mmol/kg), 4 percent/min; in data set [1] (60 mins, 0.005 mmol/kg), 37 percent/min; in data set [1] (120 mins, 0.005 mmol/kg) it was 76 percent/min. Also, the “effective action in minutes” value in data set [1] amounted to 60 min. Also, the “Q = LD50/ED50 (therapeutic breadth)” value in data set [3] is recorded as 86.
On to `C=C[C@H]1C[N@@]2CC[C@H]1C[C@@H]2[C@@H](O)c1ccnc2ccc(OC)cc12` [Quinidine], for which the “Harris dog effective dose” value in data set [4] (i.v., reference [1] Mokler and Arman 1962) is on record as 10.0 mg/kg. For the same compound, the “effective action in minutes” value in data set [4] (i.v., reference [1]) was 15 min. In addition, in data set [4] (reference [1]), the “ectopic arrhythmia (in words)” value is recorded as “decrease in the ectopic arrhythmia” and the “total number of heart contractions (in words)” value is recorded as “decrease in the total number of heart contractions”.
As for “5-(4-Diethylamino-butyryl)-5,10-dihydro-11H-dibenzo(b,e)(1,4)-diazepine-11- one [Example 2]”, the “ectopic contractions in percent/min.” value in data set [1] (5 mins, 0.005 mmol/kg) is recorded as 26 percent/min; in data set [1] (30 mins, 0.005 mmol/kg) it was 24 percent/min; in data set [1] (60 mins, 0.005 mmol/kg), 75 percent/min; in data set [1] (120 mins, 0.005 mmol/kg), 90 percent/min; in data set [1] (base, 0.005 mmol/kg), 88 percent/min.
Turning to `CCN(CC)CCCC(=O)N1c2ccc(Cl)cc2NC(=O)c2ccccc21` [Example 4, 8-Chloro-5-(4-diethylamino-butyryl)-5,10-dihydro-11H-dibenzo(b,e)(1,4)-diazepine-11-one], the 50% lethal dose (LD50) in data set [2] came to 71 mg/kg. Besides, the “total number of heart contractions/min.” value in data set [1] (30 mins., 0.005 mmol/kg) was 180 min⁻¹; in data set [1] (120 mins., 0.005 mmol/kg), 183 min⁻¹. In addition, in data set [1], the “effective action in minutes” value stood at 30 min. In addition, in data set [3], the “Q = LD50/ED50 (therapeutic breadth)” value is on record as 1614.
